Measurements as given in patent publication US7368287B2, “Use of L-α-lysophosphatidylcholine to obtain the differentiation of monocytes into mature dendritic cells in vitro” (Biomerieux, priority 2002, dated 2008).

Tests used:
BALB/c mice = assay: Delayed contact hypersensitivity to the hapten DNFB (ear edema); type: in vivo, mouse; details: 500 nmol LPC on back 10 minutes before DNFB sensitization, 48 h after elicitation
Source text: LPC can induce a CD8+ T lymphocyte response in vivo. In this example, a test for delayed contact hypersensitivity to haptens was used. In this model, BALB/c mice are sensitized by application of a hapten, DNFB (1-fluoro-2,4-dinitrobenzene, 0.5% solution in 1:1 olive oil/acetone), to the back. Five days later, a non-irritant dose of DNFB (0.2% solution in 1:1 olive oil/acetone) is applied to the left ear, whereas the right ear receives the solvent. In this elicitation phase, CD8^+ T lymphocytes specific for the haptenized proteins are recruited and infiltrate the ear, secreting γIFN and producing an edema.
A “control” batch of mice was sensitized with DNFB alone and another batch (“LPC” mice) received 500 nmol of LPC by application to the skin of the back of 20 μl of an ethanolic solution of LPC, 10 minutes before the application of DNFB. Five days later, the two batches were treated in the same way for the elicitation phase and the thickening of the ears was measured using a micrometer 48 h after this application.

PAF receptor = assay: CD86 expression in presence of PAF or of the PAF antagonist BN52021; type: cell-based, human
Protocol: The phenotype of the “control” and “LPC” cells is analyzed by flow cytometry on a FACSCalibur (Becton Dickinson, Francklin Lakes, N.J., USA) using FITC (fluorosceine isothiocyanate)-conjugated anti-CD14, anti-HLA-DR and anti-CD80 and PE (phycoerythrin)-conjugated anti-CD1a, anti-CD83, anti-CD86 and anti-CD40 (Beckman Coulter). According to the state of the art, monocytes preferentially have a CD14+ CD1a− phenotype, immature dendritic cells preferentially have a CD14− CD1a+CD86− phenotype, and mature dendritic cells preferentially have a CD14− CD1a intermediate—CD86+ phenotype.
Thus, a solution of PAF (Sigma, 5 μM) was added to the culture medium on the 5th day of monocyte differentiation. The expression of CD86 by the “control” cells and by the “LPC” cells, obtained in the presence or in the absence of PAF, was analyzed according to the protocol described in example 2, and the results are given in table 9.
Thus, a solution of the PAF antagonist BN52021 (Biomol, Plymouth Meeting, USA, 100 μM) was added to the culture medium on the 5th day of monocyte differentiation. The expression of CD86 by the “control” and “LPC” cells, obtained in the presence or in the absence of BN52021, was analyzed according to the protocol described in example 2, and the results are given in table 10.

PPARγ = target: T1, PPARγ (Homo sapiens, UniProt P37231); assay: PPAR binding activity by gel shift on nuclear proteins of treated monocytes; type: cell-based
T1 construct: After having harvested the cells, the nuclear proteins were extracted with the Nuclear extract Kit (Sigma); endogenous in cells; host or cells: monocytes undergoing differentiation into dendritic cells (nuclear extract)
T1 sequence (P37231 1-505): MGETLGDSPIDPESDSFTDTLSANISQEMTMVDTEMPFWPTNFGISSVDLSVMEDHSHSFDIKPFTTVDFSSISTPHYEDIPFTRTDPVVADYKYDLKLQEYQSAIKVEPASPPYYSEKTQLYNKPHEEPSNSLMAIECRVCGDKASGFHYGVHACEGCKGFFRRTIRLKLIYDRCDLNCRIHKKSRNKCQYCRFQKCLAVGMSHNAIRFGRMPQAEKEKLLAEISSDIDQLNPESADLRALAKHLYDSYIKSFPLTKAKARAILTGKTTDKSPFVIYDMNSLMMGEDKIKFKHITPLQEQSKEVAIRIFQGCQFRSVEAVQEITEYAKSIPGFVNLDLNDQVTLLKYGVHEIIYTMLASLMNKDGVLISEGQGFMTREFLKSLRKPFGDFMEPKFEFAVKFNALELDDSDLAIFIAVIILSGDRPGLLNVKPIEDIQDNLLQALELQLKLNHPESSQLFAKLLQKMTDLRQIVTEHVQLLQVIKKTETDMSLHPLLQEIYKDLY
Protocol: Next, the inventors investigated the transcription factors involved in the maturation process induced by LPC. In order to determine whether PPARs are involved in the LPC-induced maturation, the ability of the two transcription factors PPARγ and PPARδ to bind was analyzed using the gel shift technique. 3 isotypes of PPAR nuclear receptors (peroxisome proliferator-activated receptor) exist: α, γ and δ. PPARγs are the targets for molecules of the thiazolidinedione class, such as ciglitizone, used in the treatment of type II diabetes. PPARδs have a broader expression and can be repressors of PPARγs. The monocytes undergoing differentiation were incubated for two hours with a solution of LPC (40 μM) (“LPC” cells). “Control” cells are also obtained in the absence of LPC in the culture medium. After having harvested the cells, the nuclear proteins were extracted with the Nuclear extract Kit (Sigma). The nuclear proteins were then brought into contact with a ratioactively labeled probe containing a response element recognized by PPARs. […] The PPAR binding activity was determined by measuring the intensity of these bands. These activities are expressed as a percentage with respect to the “control” cells. […]
The activity of the PPARγ and PPARδ transcription factors was measured in these cells by the gel shift technique, as described above.
INTRALIPID® regulates PPARs in vitro. […] The cells were harvested after 1 h, 2 h or 8 h of incubation with INTRALIPID®, the nuclear proteins were extracted and the activity of PPARγ and PPARδ was determined as described in example 6.
Secondly, a solution of INTRALIPID® (50 μg/ml of phospholipids) was added to the culture medium on the 5th day of monocyte differentiation, 15 minutes before the addition of a solution of LPC (40 μM) (“LPC+Intralipid” cells). […] The cells were harvested after 2 h of incubation, the nuclear proteins were extracted and the activity of PPARγ and PPARδ was determined as described in example 6.

L-α-lysophosphatidylcholine [LPC]
Thickening of the left ear (BALB/c mice; left ear receives DNFB 0.2%): 149 ± 31 μm | Thickening of the right ear (BALB/c mice; right ear receives solvent): 0 ± 3 μm | Expression of CD86 (PAF receptor; LPC cells = 100%, BN52021 100 μM added on 5th day): 100% | Expression of the CD86 marker (mean fluorescence intensity) (PAF receptor; PAF 5 μM and/or LPC added on 5th day): 287.11 | Increase in the expression of CD86 (PAF receptor; versus control cells, PAF 5 μM and/or LPC): 470% | PPARγ binding activity (PPARγ; Table 6, LPC 40 μM, two hours, percentage with respect to control cells): 0% | PPARγ activity (PPARγ; Table 16, Intralipid 50 μg/ml phospholipids 15 minutes before LPC 40 μM, 2 h, control = 100%): 1%
